Test results published in article PMC5344539, “Nematode neuropeptides as transgenic nematicides” (PLoS Pathogens, 2017).
Entries after “also recorded” stand apart in the source; their conditions may differ.

What was measured:
G. pallida J2s [1] = experiment: Tomato invasion assay with uNLP pre-treated J2s; format: in vivo, Globodera pallida; conditions: Fig 2B; 500 J2s incubated in 100 μM uNLP for 24 h; single tomato seedling, 24 h at 18°C; normalised to negative control = 100%; mean
Experimental: (§1) Predicted uNLPs from both M. incognita and G. pallida were synthesised by EZBiolab and dissolved into pH adjusted ddH2O to make a 5 mM stock which was aliquoted and stored at -20°C. J2s of both M. incognita and G. pallida were incubated for 24 hours in 200 μl of each peptide in a 24 well plate (SPL Lifesciences, South Korea) at a defined concentration.
(§2) Tomato seeds were sterilised with 2.5% NaOCl for 15 minutes, washed 5 times in ddH20 and germinated on 0.5% Murashige and Skoog plates at 23°C. […] Invasion assays were performed by mixing 500 pre-treated M. incognita or G. pallida J2s with agar slurry and a single tomato seedling (2 days post germination) in a 6 well plate. Assays were left at 23°C for 24 hours in the case of M. incognita and at 18°C for 24 hours in the case of G. pallida under a 16 hour light and 8 hour darkness cycle. Seedlings were stained using acid fuschin [69] and the number of nematodes within the roots counted. At least five seedlings were used for M. incognita infections assays, with at least 15 seedlings used for G. pallida infections assays (due to increased variation).

G. pallida J2s [2] = experiment: Chemosensory (chemotaxis) assay of uNLP pre-treated J2s towards tomato root exudate; format: in vivo, Globodera pallida; conditions: Fig 2A; J2s incubated in 100 μM uNLP for 24 h; tomato cv. Moneymaker root exudate vs water agar plugs; counted after 3 h; mean of 10 replicates of 100 J2s; control 0.4154
Experimental: as §1
(§3) A 60 mm Petri dish was divided into two segments, a positive and a negative side, with a 0.5 cm 'dead zone' either side of the centre point. The petri dish was filled with 15 ml of 0.25% w/v agar which was allowed to solidify. 3 ml of 0.25% w/v agar slurry in spring water (pH 7, agitated with a magnetic stirrer for several hours to give a smooth consistency) was added to the petri dish and spread evenly over the surface. Root diffusate (attractant) and water only (control) 0.25% agar plugs were embedded in the agar slurry, either side of the assay arena. Root diffusate was collected from 10 tomato plants, aged 3–6 weeks in 1 litre pots, by pouring 500 ml of ddH20 through the soil three times. Diffusate from each plant was combined, filter sterilised and stored at 4°C for a maximum of 1 month. Root diffusate agar plugs were made by melting 1.25% agar in ddH20, cooling to 50°C before mixing with 4 parts of root diffusate. The agar was then allowed to solidify at room temperature. 100 uNLP pre-treated M. incognita or G. pallida J2s were added by pipette to the centre of the plate. J2s which moved out of the 'dead zone' after 3 hours were counted and their location (+/-) scored. The distribution of J2s were used to create a chemotaxis index for each plate, which formed one replicate, a total of 10 replicates where completed for each uNLP treatment.

M. incognita J2s [3] = experiment: as above; format: in vivo, Meloidogyne incognita; conditions: for CI score: Fig 1A, J2s incubated in 100 μM uNLP for 24 h, tomato cv. Moneymaker root exudate vs water agar plugs, counted after 3 h, mean of 10 replicates of 100 J2s, control 0.4426
Experimental: as §1, §3

M. incognita J2s [4] = experiment: Plant protection assay, C. reinhardtii secreting uNLPs; format: in vivo, Meloidogyne incognita; conditions: Fig 4A; peptide secreted by transgenic C. reinhardtii culture in tomato invasion arena with 500 J2s; relative to untransformed C. reinhardtii = 100%; mean
Experimental: as §2
(§4) B. subtilis were grown overnight in LB media containing ampicillin (100 μg/ml) at 37°C with shaking, and harvested in the log phase of growth determined by measuring OD600nm. Five ml of culture at 0.5 OD was spun down and the pellet mixed with 3 ml of agar slurry and 500 J2s from either G. pallida or M. incognita. C. reinhardtii clones were grown at 23°C with shaking, cultures in the log phase were measured at OD750 and 5 ml of culture at 0.5 OD was pelleted by centrifugation. C. reinhardtii pellets were mixed with 3 ml of agar slurry and 500 J2s from either G. pallida or M. incognita. Plant invasion assays were performed as described above. […]

M. incognita J2s [5] = experiment: Tomato invasion assay with uNLP pre-treated J2s; format: in vivo, Meloidogyne incognita
Experimental: as §1, §2

[6] = test system: S. carpocapsae infective juveniles (IJs); experiment: S. carpocapsae host-finding assay (non-target); format: in vivo, Steinernema carpocapsae; conditions: Fig 5E; chemotaxis towards insect host Galleria mellonella; 100 IJs incubated 24 h in 100 μM uNLP; n = 5; control 0.2315
Experimental: S. carpocapsae were cultured in Galleria mellonella at 23°C. Infective juveniles (IJs) were collected using a White trap in PBS. Freshly emerged IJs were used for each assay. 100 IJs were incubated for 24 hours in 100 μM of selected uNLPs, and host-finding assays (n = 5) performed as in Morris et al..

mixed-stage C. elegans = experiment: C. elegans chemotaxis assay (non-target); format: in vivo, Caenorhabditis elegans; conditions: worms soaked in 100 μM uNLP 24 h, counted after 1 h, 8 replicates
Experimental: C. elegans wild-type N2 Bristol strain were obtained from the C. elegans Genomics Center and maintained on a Escherichia coli (strain OP50) lawn on nematode growth medium (NGM) agar plates (3 g/l NaCl, 17 g/l agar, 2.5 g/l peptone, 5 mg/l cholesterol, 25 mM KH2PO4 (pH 6.0), 1 mM CaCl2, 1 mM MgSO4) at 20°C [70]. Chemotaxis assays were performed in a 9 cm diameter Petri dish on NGM agar which was split into a positive and negative side with a central ‘dead zone’ of 1.5 cm diameter. 100 mixed-staged C. elegans were washed three times in M9 buffer and soaked in 100 μM PPN uNLP, or M9 vehicle control for 24 hours. 2 μl of 50 mM sodium acetate, 0.5% pyrazine, 0.5% benzaldehyde or 0.5% diacetyl was spotted onto the positive side, 2 μl of ddH20 was spotted onto the negative side. Pyrazine, benzaldehyde and diacetyl volatile attractants were assayed immediately whereas the water soluble sodium acetate was assayed 18 hours following addition to the plate. Assays were maintained in the dark at 20°C, and counted after 1 hour. Eight replicates were conducted for each C. elegans attraction assay.

M. incognita J2s [7] = experiment: Plant protection assay, B. subtilis secreting uNLPs; format: in vivo, Meloidogyne incognita; conditions: Fig 4B; peptide secreted by transgenic B. subtilis culture in tomato invasion arena with 500 J2s; control = 100%; mean
Experimental: as §2, §4

M. incognita J2s [8] = experiment: Serotonin-induced stylet thrusting assay; format: in vivo, Meloidogyne incognita; conditions: Fig 1C; J2s incubated in 100 μM uNLP for 24 h; stylet thrusts in 5 mM serotonin, counted 1 min; normalised to control = 100%; mean, at least 30 J2s
Experimental: as §1
Stylet thrusting assays where performed by incubating 100 M. incognita or G. pallida J2s for 15 minute in 5 mM or 2 mM serotonin (Sigma Aldrich, USA), respectively. J2s were placed on a glass slide and stylet thrusts were counted for randomly selected J2s, for 1 minute each. Counts for a given cohort of J2s were taken in a maximum interval of 15 minutes. Longer counting intervals, making for longer serotonin incubations, yielded inconsistent results. At least 30 J2s were counted for each neuropeptide treatment.

[9] = Fig 5A, attractant sodium acetate (50 mM), control 0.4269
[10] = Fig 5B, attractant pyrazine (0.5%), control 0.4904
[11] = Fig 5C, attractant benzaldehyde (0.5%), control 0.7026
[12] = Fig 5D, attractant diacetyl (0.5%), control 0.6638

Substance	% Invasion (G. pallida J2s [1])	CI score (G. pallida J2s [2])	CI score (M. incognita J2s [3])	CI score [6]	CI score (mixed-stage C. elegans; [9])	CI score (mixed-stage C. elegans; [10])	CI score (mixed-stage C. elegans; [11])	CI score (mixed-stage C. elegans; [12])	also measured
AGGRYFMRHFDDSPFAGWMA [Gp-NLP-21g, predicted unamidated NLP of G. pallida, synthesised]	214.80%	-0.01357							
GGARAFNFFAPDE [Gp-NLP-21b, predicted unamidated NLP of G. pallida, synthesised]	6.90%	-0.117							
GGGRYFIRPFADQ [Mi-NLP-9f, predicted unamidated NLP of M. incognita, synthesised; also secreted from transgenic C. reinhardtii]			-0.26	0.2462	0.5261	0.4599	0.7463	0.6	effect on chemosensation (in words) (M. incognita J2s [3]; 100 μM uNLP, 24 h, relative to controls): inhibit chemosensation; also recorded: inhibited; % Invasion (M. incognita J2s [4]): 10.32%; effect on host invasion (in words) (M. incognita J2s [5]; 100 μM uNLP, 24 h, tomato cv. Moneymaker, relative to controls): inhibited; % Invasion (M. incognita J2s [5]; Fig 1B, 500 J2s incubated in 100 μM uNLP for 24 h, single tomato seedling, 24 h at 23°C, normalised to negative control = 100%, mean): 28.22%
MVSWQPV [Mi-NLP-40, predicted unamidated NLP of M. incognita, synthesised; also secreted from transgenic B. subtilis]			-0.04	0.3057	0.482	0.5018	0.6686	0.5858	% Invasion (M. incognita J2s [7]): 23.72%; % Thrusting (M. incognita J2s [8]): 210%
SGIQTFRDDYDEKQAGEL [Gp-NLP-21d, predicted unamidated NLP of G. pallida, synthesised]	2.01%								
